Two compounds from article PMC8509773, “3-Pyridinylidene Derivatives of Chemically Modified Lupane and Ursane Triterpenes as Promising Anticancer Agents by Targeting Apoptosis” (International Journal of Molecular Sciences, 2021) can be followed below.

Common to all, as to assay type: cell-based, human
One experiment has as its system A375 melanoma cells. In words: DAPI staining assay. As to conditions: 24 h. As to the method: (§1) For this purpose, the melanoma cell lines selected were A375, RPMI, and SK-MEL-28, given that these three lines have very good correlation coefficient scores with tumor cells originating from a wide range of malignant tumors, based on transcriptional similarity. This feature can also lead to increased clinical applicability potential for the tested substances. The two compounds were tested against three human melanoma cell lines: A375, RPMI, and SK-MEL-28 melanoma cell lines by applying 0.1, 1, and 5 μM solutions, respectively. 4′,6-Diamidino-2-phenylindole (DAPI) is a DNA-specific marker which allows the direct fluorescent blue staining of nuclei against a dark background, widely used in life sciences research. In effect, the DAPI stain binds to chromatin within the nuclei and provides their clear outline under the blue light (405 nm) while the cytoplasmic medium remains non-fluorescent. Moreover, due to its lack of interference with DNA–linker interactions, DAPI stain can provide fine details of nuclei’ shapes instead of merely highlighting their centers which contain the highest concentration of nucleic acids.
(§2) The DAPI assay was performed on three human melanoma cell lines: A375, RPMI, and SK-MEL-28. The cells were cultured in 24-well plates at 2x10^5 cells/well; compounds 6 and 7 in three different concentrations (0.1, 1, and 5 μM); and three DMSO concentrations (0.1, 1, and 5 μM) were used to stimulate cells. The immunofluorescent staining technique was performed according to a previously described protocol and adapted to our laboratory conditions. Thus, after 24 h of stimulation, the cells were fixed with 4% paraformaldehyde and incubated at room temperature for 1 h. Cell permeability was 30 min later performed with 2% Triton X solution in phosphate-buffered saline (PBS). The 300 nM 4’,6-diamidino-2-phenylindole (DAPI) staining was used to visualize cell nuclei under the fluorescence microscope at 40x magnification using CellSens V1.15 software (Olympus, Tokyo, Japan) and Image J software.

For experiment [1], the system named is RPMI melanoma cells. In words: DAPI staining assay. The conditions noted are these: 24 h. How it is done:
as §1, §2

In another experiment the test system is SK-MEL-28 melanoma cells. In words: DAPI staining assay. The conditions noted are these: 24 h. How it is done:
as §1, §2

Experiment [2] relates to RPMI melanoma cells. In words: Cell morphology assessment. As to conditions: 5 μM, 24 h. How it is done: In order to further investigate the biological effects of these compounds against three human melanoma cell lines, their effect on cell morphology was assessed.
In terms of the RPMI melanoma cell line (Figure 10), a decrease in the number of cells can be observed in direct proportion to the tested concentration; for both compounds, a proapoptotic change occurred in the cellular morphology.

Consider `C[C@H]1[C@@H]2[C@H]3CC[C@@H]4[C@@]5(C)C/C(=C\c6cccnc6)C(=O)C(C)(C)[C@@H]5CC[C@@]4(C)[C@]3(C)CC[C@]23CO[C@@]1(C)[C@@H](C(=O)/C=C/c1cccnc1)C3` [Compound 6, 3-Oxo-2-(3-pyridinylidene)-21-[3-(2E-pyridinyl)-prop-2-en-1-one]-20β,28-epoxy-18α,19βH-ursane], for which the “Nuclear changes, DAPI staining” value in the experiment on A375 melanoma cells (A375, 0.1 μM) was “nuclear fragmentation”; with A375 melanoma cells (A375, 1 μM) it was “nuclear fragmentation”; in the experiment on A375 melanoma cells (A375, 5 μM) it was “chromatin becomes condensed”; in the experiment on RPMI melanoma cells [1] (0.1 μM), “massive nucleus condensation and fragmentation”; with RPMI melanoma cells [1] (5 μM) it was “occurrence of nuclear residues”; with SK-MEL-28 melanoma cells (SK-Mel-28, 0.1 μM), “massive nucleus condensation and fragmentation”. The “Nuclear changes, DAPI staining” value in the experiment on SK-MEL-28 melanoma cells (SK-Mel-28, 5 μM) is reported as “occurrence of nuclear residues”. For the same compound, in the experiment with RPMI melanoma cells [2], the “Effect on cell morphology” value is on record as “formation of vacuoles within the cell cytoplasm”.

For `COC(=O)[C@]12CC[C@@H](C(=O)/C=C/c3cccnc3)[C@@H]1[C@H]1CC[C@@H]3[C@@]4(C)C/C(=C\c5cccnc5)C(=O)C(C)(C)[C@@H]4CC[C@@]3(C)[C@]1(C)CC2` [Compound 7, methyl 2,30-bis-(3-pyridinylidene)-3,20-dioxo-lup-28-oate], the “Nuclear changes, DAPI staining” value is “nucleus fragmentation” in the experiment on A375 melanoma cells (A375, 0.1 μM); “condensation of chromatin” with A375 melanoma cells (A375, 1 μM); “condensation of chromatin” in the experiment with A375 melanoma cells (A375, 5 μM); “slight nucleus fragmentation” in the experiment on RPMI melanoma cells [1] (0.1 μM); “nuclear fragmentation and chromatin condensation” in the experiment on RPMI melanoma cells [1] (1 μM); “nuclear fragmentation and chromatin condensation” in the experiment on RPMI melanoma cells [1] (5 μM). The “Nuclear changes, DAPI staining” value with SK-MEL-28 melanoma cells (SK-Mel-28, 0.1 μM) is “slight nucleus fragmentation”; in the experiment with SK-MEL-28 melanoma cells (SK-Mel-28, 1 μM), “nuclear fragmentation and chromatin condensation”; in the experiment on SK-MEL-28 melanoma cells (SK-Mel-28, 5 μM), “nuclear fragmentation and chromatin condensation”.
